In experiment [1] the test system is pRAS111 ScFvNP protein (VHNP (G4S)3 VλJ558L, SEQ ID No 3). As to the kind of experiment: ELISA-based affinity determinations of pRAS111 ScFvNP protein (methods of Mariani et al 1987 and Hogg et al 1987). Format: binding, mouse. To be noted: for Kd: antigen coat. From the text:
Affinity of pRAS111 ScFv for NIP was estimated firstly by adapting the method of Mariani et al (1987) Molec. Immunol. […] This approximation only holds true if the number of available binding sites per well is sufficiently low that their contribution is insignificant. Determinations of Kapp should approach Kactual as the amount of antigen per well is reduced.
To confirm the accuracy of this approach, similar estimations of K were made using the method of Hogg et al (1987) Molec. Immunol. 24, 797-801) in the absence of competing antigen, by calculating the slope of the linear portion of a plot of A450 /[ScFvNP ] v A450, where A450 /[ScFvNP ]=fKn-fK(A450), A450 is the absorbance at 450 nm, [ScFvNP ] is the concentration of added ScFvNP, n is the concentration of available binding sites and f is the valency of the ScFvNP for NIP. A value of 1 was assigned to f.

Experiment [2] concerns the target ScFv encoded by pRAS111 (ScFvNP, VHNP (G4S)3 VλJ558L, SEQ ID No 3). As to the kind of experiment: ELISA binding and competition of pRAS111 ScFv on a NIP15-BSA coat. Details: species or system mouse. The conditions noted are these: read-out: binding affinity for NP, Kd. On the procedure:
Filtered bacterial supernatants were applied to wells of a 96-well plate previously coated with […] NIP15 -BSA or […] egg lysozyme, and bound protein was detected by serial incubation with biotinylated Gαmλ antiserum and HRPO-streptavidin conjugate. Colour changes were generated by incubation with ABTS and were monitored at 405 nm.
A soluble protein present in the growth medium of JM109 (DE3)/pRAS111 cultures, but not in cultures of JM109 (DE3), binds NIP15 -BSA, but not lysozyme (FIG. 5). Filtered bacterial growth medium recovered after induction of pRAS111 protein was applied to wells of an ELISA plate coated with 10 μg.ml^-1 NIP15 -BSA (.circle-w/dot.) or 300 μg.ml^-1 hen egg lysozyme (.diamond-solid.). Bound protein was detected by serial incubation with biotinylated Gαmλ (Goat anti-mouse lambda light chain) antisera and horseradish peroxidase conjugated streptavidin diluted in blocking buffer, and colour changes generated by addition of ABTS were monitored at 405 nm. A soluble protein present in the growth medium of JM109(DE3)/pRAS111 cultures, but not in cultures of JM109(DE3), binds NIP15 -BSA, can be competed with NIP15 -BSA (FIG. 6). […] Bound protein was detected by serial incubation with biotinylated Gαmλ antisera and horseradish peroxidase conjugated streptavidin, and colour changes generated by addition of ABTS were monitored at 405 nm.

Setting [3] is: concn 5 mg ml^-1 of coating buffer, no competing antigen, f = 1, read-out: K, Hogg et al (1987) (converted).
The mark [4] stands for this setting: concn 5 mg ml^-1 of coating buffer, read-out: K, Mariani et al (1987) (converted).

Read-outs that look alike come from different tables or passages of the source.

Regarding `O=C(O)Cc1cc(I)c(O)c([N+](=O)[O-])c1` [NIP, 4-hydroxy-3-iodo-5-nitrophenylacetic acid], the “Kapp, affinity for NIP (K)” value in experiment [1] (method of Mariani et al (1987), Ct50 = 1/Kapp, at low amount of antigen per well) was 2-3×10^8 M^-1.

Turning to “NIP conjugated to BSA: hapten NIP coupled to BSA via NIP-cap-OSu”, the “affinity for NIP conjugated to BSA” value in experiment [1] (pH 7.4) is reported as 1-3×10^8 M^-1.

With “NIP16 BSA: high coupling ratio NIP-BSA, 16.4 haptens per protein molecule”, the Kd in experiment [1] (concn 1 mg ml^-1 of coating buffer, no competing antigen, f = 1, read-out: K, Hogg et al (1987) (converted)) was 1.23 nM; in experiment [1] (concn 1 mg ml^-1 of coating buffer, read-out: K, Mariani et al (1987) (converted)), 1.22 nM; in experiment [1] (setting [3]) it was 0.625 nM; in experiment [1] (setting [4]) it was 0.4 nM.

For the compound `O=C(O)Cc1ccc(O)c([N+](=O)[O-])c1` [NP, 4-hydroxy-3-nitrophenylacetic acid], the Kd in experiment [2] was 4 nM.

Take “NIP4 BSA: low coupling ratio NIP-BSA, 3.7 haptens per protein molecule”: the Kd in experiment [1] (setting [3]) was 5.56 nM; in experiment [1] (setting [4]), 4 nM; in experiment [1] (concn 10 mg ml^-1 of coating buffer, no competing antigen, f = 1, read-out: K, Hogg et al (1987) (converted)), 8.33 nM; in experiment [1] (concn 10 mg ml^-1 of coating buffer, read-out: K, Mariani et al (1987) (converted)) it was 3.45 nM.

The values above are taken from US5973116A, “Compounds for targeting” (Imperial Cancer Research Technology Limited, priority 1993, dated 1999).
